Assay [1] has as its system benzodiazepine receptors. The experiment in a line: Inhibition of 3H-flunitrazepam binding to benzodiazepine receptors in living brain, in vivo. Particulars: mice, usually subcutaneous; 3H-flunitrazepam i.v. 15 min later, killed after further 20 min; 50% reduction of specific binding. The procedure: The ED50 value represents the dose (mg/kg) of a test substance which causes the specific binding of flunitrazepam to benzodiazepine receptors in a living brain to be reduced to 50% of the control value. Such an in vivo test is carried out as follows:
Groups of mice are injected with the test substance at different doses and usually subcutaneously. 15 minutes later, ^3 H-flunitrazepam is given intravenously to the mice and after a further 20 minutes, the mice are killed, their […] by scintillation counting. The ED50 value is determined from dose-response curves.

The target of assay [2] is benzodiazepine receptors. Briefly: Displacement of 3H-flunitrazepam binding in vitro (rat forebrain membrane suspension). Particulars: 3H-flunitrazepam 1.0 nM, 0° C., 25 mM KH2PO4 pH 7.1, rat forebrain, 40-60 min.

The structures appear in SMILES notation.

`CCc1noc(-c2ncn3c2CN(C)C(=O)c2ccccc2-3)n1` [3-[5-(3-ethyl-1,2,4-oxadiazole)-yl]-5,6-dihydro-5-methyl-6-oxo-4H-imidazo[1,5-a][1,4]benzodiazepine]: in the assay with benzodiazepine receptors [1], the “Inhibition of 3H-flunitrazepam-binding in vivo ED50” value (“Inhibition … in vivo ED50” below) is 2.2 mg/kg. For the same compound, the “Inhibition of 3H-flunitrazepam-binding in vitro IC50” value (shortened to “Inhibition … in vitro IC50”) on benzodiazepine receptors [2] came out at 12 ng/mL.
On to `CCc1noc(-c2ncn3c2CN(C)C(=O)c2cc(F)ccc2-3)n1` [5,6-dihydro-3-[5-(3-ethyl-1,2,4-oxadiazole)-yl]-8-fluoro-5-methyl-6-oxo-4H-imidazo[1,5-a][1,4]benzodiazepine], for which, in the assay with benzodiazepine receptors [1], the “Inhibition … in vivo ED50” value is recorded as 4.5 mg/kg. For the same compound, the “Inhibition … in vitro IC50” value at benzodiazepine receptors [2] turned out to be 3.5 ng/mL.
As to `CCc1noc(-c2ncn3c2CN(C)C(=O)c2cc(Cl)ccc2-3)n1` [8-chloro-5,6-dihydro-3-[5-(3-ethyl-1,2,4-oxadiazole)-yl]-5-methyl-6-oxo-4H-imidazo[1,5-a][1,4]benzodiazepine], the “Inhibition … in vivo ED50” value with benzodiazepine receptors [1] turned out to be 5.9 mg/kg. Further, the “Inhibition … in vitro IC50” value on benzodiazepine receptors [2] is over 10 ng/mL.
For the compound `CCOC(=O)c1ncn2c1CN(C)C(=O)c1ccccc1-2` [ethyl-5,6-dihydro-5-methyl-6-oxo-4H--imidazo[1,5-a][1,4]benzodiazepine-3-carboxylate, reference compound], the “Inhibition … in vivo ED50” value with benzodiazepine receptors [1] is over 30 mg/kg.
With `CCOC(=O)c1ncn2c1CN(C)C(=O)c1cc(Cl)ccc1-2` [ethyl-8-chloro-5,6-dihydro-5-methyl-6-oxo-4H--imidazo[1,5-a][1,4]benzodiazepine-3-carboxylate, reference compound], the “Inhibition … in vivo ED50” value in the assay on benzodiazepine receptors [1] is over 30 mg/kg. In addition, the “Inhibition … in vitro IC50” value at benzodiazepine receptors [2] amounted to 7.9 ng/mL.
